Test results as given in PMC3319082 (Bioorganic & medicinal chemistry letters, 2011).

Target: rat mGlu4 (Rattus norvegicus, UniProt P31423)
Format: cell-based
Conditions: rat mGlu4/GIRK cells, Fig. 2

rat mGlu4, sequence (P31423 33-912): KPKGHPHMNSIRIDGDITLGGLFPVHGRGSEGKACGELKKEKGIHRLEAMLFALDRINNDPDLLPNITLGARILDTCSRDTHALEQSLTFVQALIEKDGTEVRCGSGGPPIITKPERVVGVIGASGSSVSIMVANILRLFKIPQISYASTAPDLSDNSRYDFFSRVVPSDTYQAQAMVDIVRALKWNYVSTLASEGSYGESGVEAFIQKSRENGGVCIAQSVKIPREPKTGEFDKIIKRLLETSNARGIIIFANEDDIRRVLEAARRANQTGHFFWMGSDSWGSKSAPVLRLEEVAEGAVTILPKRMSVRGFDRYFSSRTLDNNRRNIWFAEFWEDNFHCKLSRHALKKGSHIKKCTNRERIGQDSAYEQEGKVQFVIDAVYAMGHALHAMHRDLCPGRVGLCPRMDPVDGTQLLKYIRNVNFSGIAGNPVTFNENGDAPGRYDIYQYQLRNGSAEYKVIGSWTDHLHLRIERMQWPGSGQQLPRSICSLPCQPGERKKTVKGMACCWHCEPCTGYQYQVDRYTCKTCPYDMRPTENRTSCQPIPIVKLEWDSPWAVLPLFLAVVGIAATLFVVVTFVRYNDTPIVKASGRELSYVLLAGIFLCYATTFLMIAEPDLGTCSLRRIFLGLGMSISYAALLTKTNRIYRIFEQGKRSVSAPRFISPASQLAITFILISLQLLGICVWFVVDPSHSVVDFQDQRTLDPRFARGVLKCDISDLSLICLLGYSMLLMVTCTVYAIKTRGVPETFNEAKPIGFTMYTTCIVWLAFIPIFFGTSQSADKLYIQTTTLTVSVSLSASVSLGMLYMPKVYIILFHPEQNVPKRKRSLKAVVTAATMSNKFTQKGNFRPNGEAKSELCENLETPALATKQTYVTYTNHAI

With O=C(COc1ccccc1Br)c1ccc(Cl)nc1 [2e] the “Antagonist activity in rat mGlu4 thallium flux assay” value was “confirmed to be active”.
